The data set can be described thus: In vivo pharmacokinetics (PK) study in mice. As to conditions: ICR mice, po 30 mg/kg. On the procedure: ICR mice, weighing 18-20 g, were randomly divided into groups of three mice each after 3 to 5 days' acclimatization, and a series of the compounds were administered intragastrically to each group at a dose of 30 mg/kg. The test animals (ICR mice) were fasted for 12 hours before the administration and fed 4 hours after the administration. They were free to access water before and after the experiment. After the intragastric administration, about 0.1 mL of blood was collected from the orbits. Within 30 minutes after anticoagulation with EDTA-K2, the plasma was separated by centrifugation at 4° C. and 4000 rpm for 10 minutes. Immediately after collecting all plasma, it was stored at −20° C. for testing. 20 μL of the plasma sample to be tested and standard curve sample were pipetted, and then thereto was added 200 μL of an acetonitrile solution containing an internal standard (diazepam 20 mg/mL). The resulting mixture was oscillated and mixed uniformly for 5 min, and then centrifugated at 12000 rpm for 10 min. 75 μL supernatant was pipetted, and 75 μL ultrapure water was added thereto for dilution, and mixed evenly. 1 μL of the resulting solution was pipetted for LC/MS/MS determination.

Molecules are shown by their SMILES.

With `Cc1c(C(=O)Nc2ccc(F)c(C#N)c2)c(C)n(C)c1C(=O)C(=O)NC1(C(F)(F)F)COC1` [Example 25, N-(3-cyano-4-fluorophenyl)-1,2,4-trimethyl-5-(2-oxo-2-((3-(trifluoromethyl)oxetan-3-yl)amino)acetyl)-1H-pyrrole-3-carboxamide], under “0.25 h, 3 h, 8 h”, the “Liver AUC(0-8 h)” value is given as 315435 ng/g. The “Plasma AUC(0-8 h)” value (blood at 0.25 h, 3 h, 8 h) stood at 37732 ng/mL. In addition, the Kp (mouse, liver/blood, AUC(0-8 h), read-out: Liver to blood ratio) is 8.36.

The values above are taken from US12116356B2, “N-heterocyclic five-membered ring-containing capsid protein assembly inhibitor, pharmaceutical composition thereof, and use thereof” (CHIA TAI TIANQING PHARMACEUTICAL GROUP CO., LTD., priority 2018, dated 2024).
